Measurements: publication PMC10108821, “Three tyrosine kinase inhibitors cause cardiotoxicity by inducing endoplasmic reticulum stress and inflammation in cardiomyocytes” (BMC Medicine, 2023)

Experiments:
Cor.4U hiPSC-CMs [1] = experiment: ATP level (CellTiter-Glo) in hiPSC-CMs; format: cell-based, human; details: for effect on ATP levels: 0.32 to 10 µM, day 1 to day 5; for dose-dependent toxicity (ATP fold changes): day 1, different doses; for dose-dependent toxicity (ATP fold changes) / time-dependent toxicity (ATP fold changes): RNAseq conditions; for time-dependent toxicity (ATP fold changes): fixed dose over 5 days
Method: ATP content was measured using the CellTiter-Glo Luminescent Cell Viability Assay (Promega) following the manufacturer’s protocol. After adding CellTiter-Glo reagents and incubation, luminescence was quantified using a Synergy H1 plate reader (BioTek Instruments). ATP standards were prepared from 0.01 to 5 μM. For each drug, we fitted a four-parameter log-logistic model to calculate ED50 at day 5 (Fig S1). To rank the cellular toxicity of the eight TKIs (Fig 1T), we calculated (EC50-Cmax)/(EC50+Cmax) and arranged from the smallest to the biggest for increasing cellular toxicity.

HELP hiPSC-CMs = experiment: CardioExcyte 96 microelectrode array: base impedance and extracellular field potential; format: cell-based, human; details: fixed doses: 10 µM, crizotinib and ponatinib 3.16 µM; up to 24 h
Method: HELP hiPSC-CMs were seeded evenly into the 96-well microelectrode array, NSP-96 0.6mm sensor plate (Nanion technologies), at 50,000 cells per well. Measurements were started after 3-5 days of culture of these cells and until the impedance and the extracellular field potential are stable. Measurements were taken a few times before drug addition, and every 30~60 minutes after the drugs were added at 2x concentration. Values were averaged from 3 wells per group. Beat rate, amplitude of impedance, base impedance and FPDc were calculated by the Cardio Excyte Control 96 software package (Nanion Technologies).

NRCMs [2] = experiment: Seahorse assay: oxygen consumption and extracellular acidification; format: cell-based, rat; details: 24 h; fixed doses: 10 µM, crizotinib and ponatinib 3.16 µM
Method: (§1) Rats were euthanized by decapitation and thoracic cavity was opened with scissors and hearts were popped out of the opening gently with fingers. Hearts were clipped and put in HBSS immediately; 20–40 hearts were collected into one sterile vial containing a magnetic stir bar and 1 mL digestive media made of 0.1% trypsin (Macklin) and 0.05% collagenase (Gibco) in HBSS. Hearts were minced until they were uniform in size. Digestive media was added to 10 mL for 40 hearts and stirred gently for 6 min. Supernatant was discarded and the digestion was repeated once; 10 mL digestive media was added and stirred gently for 10 min. The supernatant with cells were collected and the digestion and collection were repeated 4 times. Cells were centrifuged at 1200 rpm for 5 min, resuspended in media (Dulbecco’s modified Eagleʼs medium (Gibco)) with 10% fetal bovine serum (FBS; VISTECH), 1% penicillin–streptomycin, and 1% 0.1 M 5-bromo-2-deoxyuridine solution (Shanghai Yuanye) and filtered through a 40-μm cell strainer. Cells were seeded on a 100-mm plastic dish and cultured in a 5% CO2 incubator at 37 °C for 2 h to allow non-myocytes to adhere to the plate. The dish was swirled and media gently pipetted up and down to detach lightly attached cardiomyocytes. The collected myocytes were seeded in the same media described before; 48 h after plating, medium was exchanged to fresh DMEM (Gibco) with or without 2% FBS. All drug treatments were performed after this media change.
NRCMs were seeded evenly into the Seahorse XF96 cell culture plates (Agilent) and cultured in DMEM high glucose with 2% FBS. About 2 hours before the test, cells were moved to a non-CO2 incubator at 37 ° C and incubated for 1 hour. 1 hour prior to the test, culture media was replaced with the Seahorse Basal DMEM at 37°C (with appropriate concentration of glucose, 4mM L-glutamine, 1 mM sodium pyruvate and 1% penicillin-streptomycin solution) and incubated in a non-CO2 incubator at 37°C for 1 hour. Drugs were prepared at 8x to 10x concentrations with the corresponding seahorse media as in each well and added into ports of Seahorse XF96 cartridge plates which have been hydrated overnight. XFe96 Extracellular Flux Analyzer (Agilent) was used to measure oxygen consumption rate and extracellular acidification rate of cells with different drug treatments.

patients = details: cited from earlier work; for level of cardiotoxicity based on literature reports: ref Table S1, 2, 4, 26–36
Cor.4U hiPSC-CMs [3] = experiment: 3'DGE-UMI RNAseq transcriptome of hiPSC-CMs; details: for expression of mitochondrial tRNA and electron transfer chain genes: high PC2 loadings; for expression of genes associated with heart contraction: Cluster 4, day 3 or day 5
NRCMs [4] = experiment: Lipid peroxidation by C11-bodipy 581/591 and flow cytometry; details: 100 µM, 3 hours, Fig. S15
Method: For ROS assessment, cells were washed with PBS once and stained with 10μM H2DCFHDA (MCE) in phenol red-free DMEM (Procell) in a humid incubator with 5% CO2 at 37°C for 30 minutes. Cells were washed with PBS twice and dissociated to single cells before flow cytometry analysis at the FITC channel. For lipid peroxidation measurement, cells were washed with PBS once and stained with 2μM C11-bodipy^581/591 (Cayman) in phenol red-free DMEM (Procell) in a humid incubator with 5% CO2 at 37°C for 30 minutes. Cells were washed with PBS twice and dissociated to single cells before flow cytometry analysis at both the FITC and the PE channels. Fluorescence of the oxidized C11-bodipy were acquired through the FITC channel (Ex/Em=488/520nm) and that of the non-oxidized C11-bodipy through the PE channel (Ex/Em=555/624nm).

NRCMs [5] = experiment: Mitochondrial membrane potential by TMRE staining; format: cell-based, rat; details: 24 h of treatment
Excerpt: Fig S3 Mitochondrial membrane potential changes in response to TKIs. (A) Raw images of TMRE staining in NRCMs treated with different drugs. (B) Fold changes in mitochondrial membrane potential at different treatments.

ER stress genes in NRCMs = experiment: qRT-PCR of ER stress genes in NRCMs; format: cell-based, rat; details: trolox 1 mM with afatinib or sorafenib
Method: as §1, with “The collected myocytes were seeded in the same media described before; 48 h after plating, medium was exchanged to fresh DMEM (Gibco) with or without 2% FBS.” left out
RNA was isolated based on a standard protocol using TRIzol reagent (Vazyme). TRIzol (1ml per 1 well of a 6-well plate) was used to lyse cells and chloroform was added for RNA separation. Samples were shaked vigorously by hand for 15 seconds and incubated at room temperature for 2-3 minutes. RNA was present in the aqueous phase after centrifuge at 12000 x g for 15 minutes. Isopropyl alcohol was mixed to precipitate RNA from the aqueous phase. […] 1 μg total RNA was used for cDNA synthesis using a reverse transcription kit (Bioman). We then measured expression of genes of interest with SYBRR Green qPCR Mix (Bioman) using Applied Biosystems 7500 Quantitative PCR Instrument. Gene expression was normalized to the 18S ribosomal RNA expression and primers were listed in Primers Table.

SMILES | effect on ATP levels (Cor.4U hiPSC-CMs [1]) | dose-dependent toxicity (ATP fold changes) (Cor.4U hiPSC-CMs [1]) | effect on beat rate, contraction, base impedance and corrected field potential duration (HELP hiPSC-CMs) | basal oxygen consumption rate (OCR) (NRCMs [2]) | level of cardiotoxicity based on literature reports (patients) | expression of mitochondrial tRNA and electron transfer chain genes (Cor.4U hiPSC-CMs [3]) | level of lipid peroxidation, positive control (NRCMs [4]) | time-dependent toxicity (ATP fold changes) (Cor.4U hiPSC-CMs [1]) | expression of genes associated with heart contraction (Cor.4U hiPSC-CMs [3]) | EC50 (ATP) compared with maximal plasma concentration (Cmax) (Cor.4U hiPSC-CMs [1]; day 5) | mitochondrial membrane potential (NRCMs [5]) | maximal, spare and non-mitochondrial oxygen consumption (NRCMs [2]) | congestive heart failure (patients; meta-analysis of 6935 patients) | effect on induction of ER stress by TKIs (ER stress genes in NRCMs)
C[C@@H](Oc1cc(-c2cnn(C3CCNCC3)c2)cnc1N)c1c(Cl)ccc(F)c1Cl [crizotinib] | dose-dependent and time-dependent reduction in ATP levels | dose-dependent toxicity | stopped beating and contraction of hiPSC-CMs after 0.5 h of treatment | trend of inhibiting basal oxygen consumption rate (OCR) | medium-levels of cardiotoxicity | upregulated | – | – | – | – | – | – | – | –
CC(C)(OO)c1ccccc1 [cumene hydroperoxide] | – | – | – | – | – | – | 42% | – | – | – | – | – | – | –
Cc1nc(Nc2ncc(C(=O)Nc3c(C)cccc3Cl)s2)cc(N2CCN(CCO)CC2)n1 [dasatinib] | did not inhibit ATP at any dose or time point tested | did not | minimal effects on these parameters | trend of inhibiting basal oxygen consumption rate (OCR) | medium-levels of cardiotoxicity | – | – | increasing toxicity with treatment duration | upregulated | – | – | – | – | –
COc1cc2ncnc(Nc3ccc(F)c(Cl)c3)c2cc1OCCCN1CCOCC1 [gefitinib] | did not inhibit ATP at any dose or time point tested | did not | minimal effects on these parameters | – | low cardiotoxicity | – | – | – | upregulated | – | – | – | – | –
Cc1cn(-c2cc(NC(=O)c3ccc(C)c(Nc4nccc(-c5cccnc5)n4)c3)cc(C(F)(F)F)c2)cn1 [nilotinib] | dose-dependent and time-dependent reduction in ATP levels | – | minimal effects on these parameters | – | medium-levels of cardiotoxicity | – | – | – | – | lower than or similar to their maximal plasma concentrations (Cmax) | trend of decreasing mitochondrial membrane potentials | – | – | –
CCN(CC)CCNC(=O)c1c(C)[nH]c(/C=C2\C(=O)Nc3ccc(F)cc32)c1C [sunitinib] | dose-dependent and time-dependent reduction in ATP levels | dose-dependent toxicity | increased beat rate initially and reduced the base impedance very acutely | trend of inhibiting basal oxygen consumption rate (OCR) | high-levels of cardiotoxicity | upregulated | – | increasing toxicity with treatment duration | – | – | trend of decreasing mitochondrial membrane potentials | inhibited maximal, spare, and non-mitochondrial oxygen consumption significantly | 4.1% | –
Cc1c(C)c2c(c(C)c1O)CCC(C)(C(=O)O)O2 (centres unmarked) [trolox] | – | – | – | – | – | – | – | – | – | – | – | – | – | did not block the induction of ER stress by these TKIs
